# Strand notation (5' to 3'): a small letter for the sugar, then the base; units joined by * are phosphorothioate-linked, units joined directly phosphodiester-linked; [ ] holds rarer units or linkages, { } end groups; capitals alone tell only the bases. e = 2'-O-(2-methoxyethyl) (MOE); [5mC] = 5-methylcytosine; d = 2'-deoxy (DNA)
# Assays:
# vascular leakage = test: Vascular leakage, plasma Evans Blue OD620, basal model (Example 14); assay type: in vivo, mouse
# Protocol: Groups 3, 4, 5, 6, 7, and 8 consisted of 8 mice each and were treated with 2.5 mg/kg, 5 mg/kg, 10 mg/kg, 20 mg/kg, 40 mg/kg, or 80 mg/kg (corresponding to 5 mg/kg, 10 mg/kg, 20 mg/kg, 40 mg/kg, 80 mg/kg, or 160 mg/kg per week), respectively of ISIS 482584 administered subcutaneously twice a week for 3 weeks. […] served as the experimental treatment groups for examining the effect of varying doses of ISIS 482584 on basal vascular permeability.
# All the groups were then injected with 30 mg/kg of Evans Blue solution in the tail vein. The mice were sacrificed 30 min after the Evans Blue solution administration and colons, feet, and ears were harvested and examined for permeability defects. Blood samples were taken through cardiac puncture.
# The blood drawn through cardiac puncture was immediately mixed with 3 times the volume of ice-cold ethanol. The solution was centrifuged at 15,000 g for 20 minutes at 4° C. to remove cell debris and precipitated plasma proteins. The ethanol extracts were further purified by ultra-filtration through a 10 kDa MWCO filter. The color intensity of the ethanol extracted plasma solution was then measured at OD620 nm. The results are presented in Table 70 as percentage increase or decrease of the OD values of the Group 1 PBS control. It was expected that treatment groups may display higher OD values due to reduced vascular leakage.
# [1] = test system: high molecular weight kininogen (HMWK); test: Western blot quantification of HMWK and HMWK cleavage product by densitometer (Example 14); assay type: in vivo, mouse; conditions: for Quantification of HMWK by densitometer / Quantification of HMWK cleavage product by densitometer: Western blot of blood samples, basal model
# Source text: Treatment with PKK antisense oligonucleotide results in stabilization of HMWK. Thus, vascular permeability is reduced in ISIS 482584-treated groups in a dose-dependent manner. […] Thus, reduced HMWK is caused by PKK cleavage of HMWK into cleavage products (including bradykinin and HKa). Data are presented in Intensity Units as measured by densitometer.
# C1-INH mRNA = C1-INH mRNA in liver of mice treated with ISIS 461756 (Example 18); assay type: in vivo, mouse; conditions: liver; all groups ISIS 461756 25 mg/kg/wk; pretreatment PBS or oligonucleotide 80 mg/kg/wk sc 3 weeks
# Protocol: Vascular permeability induced by ISIS 461756, an antisense oligonucleotide which targets murine C1 inhibitor mRNA, increases vascular permeability in mice and replicates the pathology of hereditary angioedema. The effect of ISIS 482584 on this model was evaluated.
# One group of 8 mice was treated with 40 mg/kg ISIS 482584 administered subcutaneously twice a week for 3 weeks (weekly dose of 80 mg/kg). A second group of 8 mice was treated with 40 mg/kg of the control oligonucleotide, ISIS 141923, administered subcutaneously twice a week for 3 weeks (weekly dose of 80 mg/kg). A third group of 8 mice was treated with PBS administered subcutaneously twice a week for 3 weeks. On day 14, all the groups were treated with 12.5 mg/kg ISIS 461756 administered subcutaneously twice a week for 3 weeks (weekly dose of 25 mg/kg). A control group of mice was treated with PBS administered subcutaneously twice a week for 3 weeks but was not administered ISIS 461756.
# At the end of the treatment period, all the groups were injected with 30 mg/kg of Evans Blue solution into the tail vein. The mice were sacrificed 30 min after the Evans Blue solution administration and colons, feet, ears, and intestines were harvested. The liver was also harvested for RNA analysis.
# RNA was isolated from the liver for RT-PCR analysis of C1-INH and PKK mRNAs. The primer probe set for C1-INH is RTS3218 (forward sequence […], designated herein as SEQ ID NO: 2234; reverse sequence […], designated herein as SEQ ID NO: 2235; probe sequence […], designated herein as SEQ ID NO: 2236). The primer probe set for PKK is RTS3287 (forward sequence […], designated herein as SEQ ID NO: 2237; reverse sequence […], designated herein as SEQ ID NO: 2238; probe sequence […], designated herein as SEQ ID NO: 2239). The results are presented in Table 79 as percent inhibition compared to the PBS control not treated with ISIS 461756.
# PKK protein = test: Plasma PKK protein levels in human KLKB1 transgenic mice (Example 7); assay type: in vivo; conditions: transgenic mice
# In short: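 Human KLKB1 transgenic mice dosed subcutaneously twice weekly for 3 weeks with antisense oligonucleotides at 2.5, 5.0, 10 or 20 mg/kg/week. Plasma collected 48 hours after the final dose; PKK protein expressed as percent inhibition relative to PBS-treated controls.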
substance,measurement,setting,value
"ISIS 482584: 5-10-5 MOE gapmer targeting murine PKK, GGCATATTGGTTTTTGGAAT; SEQ ID NO: 2244 (antisense eG*eG*e[5mC]*eA*eT*dA*dT*dT*dG*dG*dT*dT*dT*dT*dT*eG*eG*eA*eA*eT)","Percentage of OD620 nm of Evans Blue dye compared to the PBS basal control, Plasma",vascular leakage; 10 mg/kg/week,36%
same,"Percentage of OD620 nm of Evans Blue dye compared to the PBS basal control, Plasma",vascular leakage; 20 mg/kg/week,56%
same,"Percentage of OD620 nm of Evans Blue dye compared to the PBS basal control, Plasma",vascular leakage; 40 mg/kg/week,83%
same,"Percentage of OD620 nm of Evans Blue dye compared to the PBS basal control, Plasma",vascular leakage; 80 mg/kg/week,93%
same,"Percentage of OD620 nm of Evans Blue dye compared to the PBS basal control, Plasma",vascular leakage; 160 mg/kg/week,95%
same,Quantification of HMWK by densitometer,[1]; 10 mg/kg/week,507 Intensity Units
same,Quantification of HMWK cleavage product by densitometer,[1]; 10 mg/kg/week,414774 Intensity Units
same,Quantification of HMWK by densitometer,[1]; 20 mg/kg/week,608 Intensity Units
same,Quantification of HMWK cleavage product by densitometer,[1]; 20 mg/kg/week,403360 Intensity Units
same,Quantification of HMWK by densitometer,[1]; 40 mg/kg/week,873 Intensity Units
same,Quantification of HMWK cleavage product by densitometer,[1]; 40 mg/kg/week,388135 Intensity Units
same,Quantification of HMWK by densitometer,[1]; 80 mg/kg/week,7279 Intensity Units
same,Quantification of HMWK cleavage product by densitometer,[1]; 80 mg/kg/week,204482 Intensity Units
same,Quantification of HMWK by densitometer,[1]; 160 mg/kg/week,21358 Intensity Units
same,Quantification of HMWK cleavage product by densitometer,[1]; 160 mg/kg/week,19936 Intensity Units
same,HMWK cleavage product,"[1]; vs PBS control, dose-dependent",lower HMWK cleavage product
same,levels of HMWK,"[1]; vs PBS control, dose-dependent",higher levels of HMWK
same,Percent inhibition of C1-INH mRNA expression compared to the untreated PBS control,C1-INH mRNA,77%
Tes Ges mCes Aes Aes Gds Tds mCds Tds mCds Tds Tds Gds Gds mCds Aes Aes Aes mCes Ae [ISIS 546254],human PKK protein inhibition,PKK protein; 2.5 mg/kg/week s.c. twice a week for 3 weeks,0%
same,human PKK protein inhibition,PKK protein; 5.0 mg/kg/week s.c. twice a week for 3 weeks,36%
same,human PKK protein inhibition,PKK protein; 10 mg/kg/week s.c. twice a week for 3 weeks,51%
same,human PKK protein inhibition,PKK protein; 20 mg/kg/week s.c. twice a week for 3 weeks,76%
